Consider four compounds from patent US8088819B2, “Derivatives of substituted 3-phenyl-1-(phenylthienyl)propan-1-ones and of 3-phenyl-1-(phenylfuranyl) propan-1-ones, preparation and use” (priority 2006, dated 2012).

What all share (format): cell-based
One assay concerns the target T1, hPPARalpha (Homo sapiens, UniProt Q07869).
T1 construct: expressed in transfected cells; host or cells: COS-7 (monkey kidney fibroblasts)
T1 sequence (Q07869 239-466 limits assumed): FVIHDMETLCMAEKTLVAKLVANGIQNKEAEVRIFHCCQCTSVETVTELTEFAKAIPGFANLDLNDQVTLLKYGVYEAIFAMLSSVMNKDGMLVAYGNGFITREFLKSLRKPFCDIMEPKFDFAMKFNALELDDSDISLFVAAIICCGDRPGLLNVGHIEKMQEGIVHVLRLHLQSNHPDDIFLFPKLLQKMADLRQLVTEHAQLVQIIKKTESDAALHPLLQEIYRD
Nature of the assay: PPAR activation: Gal4-hPPARα chimera luciferase transactivation in COS-7 cells, Method 1. The following applies: COS-7, 24 h; for Emax: maximum percentage response relative to the reference phenofibric acid, read-out: hPPARalpha % max. A digest of the protocol:
(§1)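 COS-7 cells transiently transfected with Gal4 DBD–human PPAR LBD (DEF domain) chimeras plus Gal4(RE)_TkpGL3 luciferase reporter (1/10 ratio). Compounds applied 24 h at 37 °C in serum-free medium at doses between 10^−5 and […]; luciferase read after lysis, EC50 derived.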

The next assay concerns the target T2, hPPARgamma (Homo sapiens, UniProt P37231).
T2 construct: expressed in transfected cells; host or cells: COS-7 (monkey kidney fibroblasts)
T2 sequence (P37231 238-503 limits assumed): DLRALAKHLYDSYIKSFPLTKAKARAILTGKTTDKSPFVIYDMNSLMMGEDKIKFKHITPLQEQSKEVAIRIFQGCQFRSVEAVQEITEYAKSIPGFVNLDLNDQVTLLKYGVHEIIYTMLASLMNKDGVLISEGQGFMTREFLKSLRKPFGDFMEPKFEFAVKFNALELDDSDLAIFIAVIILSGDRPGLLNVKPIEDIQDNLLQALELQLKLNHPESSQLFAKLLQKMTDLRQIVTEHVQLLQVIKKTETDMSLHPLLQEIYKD
Nature of the assay: PPAR activation: Gal4-hPPARγ chimera luciferase transactivation in COS-7 cells, Method 1. The following applies: COS-7, 24 h; for Emax: maximum percentage response relative to the reference rosiglitazone, read-out: hPPARgamma % max. In short, it runs like this:
as §1

For the next assay, the target named is T3, hPPARdelta (Homo sapiens, UniProt Q03181).
T3 construct: expressed in transfected cells; host or cells: COS-7 (monkey kidney fibroblasts)
T3 sequence (Q03181 211-439 limits assumed): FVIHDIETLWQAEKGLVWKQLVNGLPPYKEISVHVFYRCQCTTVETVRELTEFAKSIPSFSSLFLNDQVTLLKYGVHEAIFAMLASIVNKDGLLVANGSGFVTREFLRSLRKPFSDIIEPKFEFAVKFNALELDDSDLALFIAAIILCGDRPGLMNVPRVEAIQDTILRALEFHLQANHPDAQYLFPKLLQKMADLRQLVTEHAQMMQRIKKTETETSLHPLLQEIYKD
Put plainly: PPAR activation: Gal4-hPPARδ chimera luciferase transactivation in COS-7 cells, Method 1. The following applies: COS-7, 24 h; for Emax: maximum percentage response relative to the reference GW501516, read-out: hPPARdelta % max. In short, it runs like this: as §1

Assay [1] has as its system MCP1 secretion in human monocytes (THP1). Put plainly: MCP1 secretion by human monocytes stimulated with PMA (ELISA). The following applies: at 1 μm, 24 h. As for the experimental part: The antiinflammatory effects of the compounds according to the invention were evaluated by measuring the secretion and expression of macrophages chemoattractant protein (MCP1) and of matrix metalloproteinase 9 (MMP9) by monocytes treated with the compounds according to the invention for 24 hours and stimulated with PMA (phorbol 12-myristate 13-acetate, which causes an inflammatory response of the cells). The more the amount of MCP1 secreted is reduced, the greater the inhibitory action of the compounds according to the invention on the inflammatory reaction. […]
The treatment medium is recovered and the concentration of MCP1 is measured using the ELISA kit “Human MCP1 Elisa set” (BD OptEIA; 555179) following the manufacturer's recommendations.
A human antiMCP1 monoclonal antibody is fixed on a plate, then the supernatants, containing the MCP1 secreted by the cells, are distributed. […] A third antibody, conjugated and coupled to a peroxidase enzyme, makes it possible, in the presence of substrate, to initiate an enzymatic reaction, the result of which is a coloration that is proportional to the amount of MCP1 fixed, and can be measured by spectrophotometry. […]
The induction factor, i.e. the ratio of the signal induced by the compound according to the invention to the signal of the control group, was then calculated. […]

By EC50 is commonly meant the concentration giving half of the maximal effect.

For `CC(C)(Oc1ccc(CCC(=O)c2ccc(-c3ccc(C(F)(F)F)cc3)s2)c(Cl)c1Cl)C(=O)O` [Compound 2, 2-(2,3-dichloro-4-(3-oxo-3-(5-(4-(trifluoromethyl)phenyl)thien-2-yl)propyl)phenoxy)-2-methylpropanoic acid], the 50% effective concentration (EC50) at hPPARalpha was 0.053 µM; at hPPARgamma, 0.06 µM; on hPPARdelta, 0.007 µM. Moreover, the Emax was 43% at hPPARalpha, 11% on hPPARgamma and 91% at hPPARdelta.

Consider `CC(C)(Oc1ccc(CCC(O)c2ccc(-c3ccc(C(F)(F)F)cc3)s2)c(Cl)c1Cl)C(=O)O` (stereo not shown) [Compound 4, 2-(2,3-dichloro-4-(3-hydroxy-3-(5-(4-(trifluoromethyl)phenyl)thien-2-yl)propyl)phenoxy)-2-methylpropanoic acid], for which the EC50 stood at 0.125 µM at hPPARalpha and 0.034 µM on hPPARdelta. The Emax on hPPARalpha stood at 50%; at hPPARgamma, 38%; on hPPARdelta, 107%.

Consider `CC(C)(Oc1ccc(CCC(OCc2ccccc2)c2ccc(-c3ccc(C(F)(F)F)cc3)s2)c(Cl)c1Cl)C(=O)O` (stereo not shown) [Compound 7, 2-(4-(3-(benzyloxy)-3-(5-(4-(trifluoromethyl)phenyl)thien-2-yl)propyl)-2,3-dichlorophenoxy)-2-methylpropanoic acid], for which the “secretion of MCP1 in human monocytes” value in assay [1] was “significant decrease”.

Turning to `CC(C)(Oc1ccc(CCC(=O)c2cc(-c3ccc(C(F)(F)F)cc3)cs2)c(Cl)c1Cl)C(=O)O` [Compound 11, 2-(2,3-dichloro-4-(3-oxo-3-(4-(4-(trifluoromethyl)phenyl)thien-2-yl)propyl)phenoxy)-2-methylpropanoic acid], the results for the EC50 on hPPARalpha, on hPPARgamma and on hPPARdelta were 0.288 µM, 1.17 µM and 0.003 µM, respectively. Further, the values for the Emax at hPPARalpha, on hPPARgamma and on hPPARdelta were 39%, 55% and 105%, respectively. For the same compound, the “secretion of MCP1 in human monocytes” value in assay [1] is on record as “significant decrease”.
